Results on three compounds are retold here after ChEMBL document CHEMBL1201862, “PubChem BioAssay data set” (2004).

Each structure is given as a SMILES string. Activity calls are given as the source filed them.

One assay deals with Paired box protein Pax-8 (Homo sapiens, UniProt Q06710). Nature of the assay: inhibitors of PAX8-driven TPO luciferase reporter, dose response, RMG-I cells, cherry-pick (AID 687027).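 Note: luciferase reporter driven by Pax8 target thyroperoxidase promoter measured by SteadyGlo luminescence.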 The assay is classed as functional, cell-based. In general terms: A reporter such as luciferase makes a cellular process visible.
Paired box protein Pax-8, sequence (Q06710 whole entry): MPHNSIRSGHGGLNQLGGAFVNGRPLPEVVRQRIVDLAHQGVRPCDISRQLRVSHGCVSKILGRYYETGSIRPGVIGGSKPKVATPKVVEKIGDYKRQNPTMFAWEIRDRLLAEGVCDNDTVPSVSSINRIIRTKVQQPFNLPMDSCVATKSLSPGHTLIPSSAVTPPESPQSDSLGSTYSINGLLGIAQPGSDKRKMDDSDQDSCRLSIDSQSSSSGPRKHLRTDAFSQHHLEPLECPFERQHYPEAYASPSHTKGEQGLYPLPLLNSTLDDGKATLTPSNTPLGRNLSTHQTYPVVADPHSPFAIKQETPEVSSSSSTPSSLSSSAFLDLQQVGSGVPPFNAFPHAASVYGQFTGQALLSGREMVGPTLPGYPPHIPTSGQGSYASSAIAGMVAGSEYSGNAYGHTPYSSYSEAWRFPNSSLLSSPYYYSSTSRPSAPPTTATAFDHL
The target in another assay is T1, Exodeoxyribonuclease V (Escherichia coli (strain K12), UniProt P04993+P07648+P08394).
T1 sequence (P04993 whole entry): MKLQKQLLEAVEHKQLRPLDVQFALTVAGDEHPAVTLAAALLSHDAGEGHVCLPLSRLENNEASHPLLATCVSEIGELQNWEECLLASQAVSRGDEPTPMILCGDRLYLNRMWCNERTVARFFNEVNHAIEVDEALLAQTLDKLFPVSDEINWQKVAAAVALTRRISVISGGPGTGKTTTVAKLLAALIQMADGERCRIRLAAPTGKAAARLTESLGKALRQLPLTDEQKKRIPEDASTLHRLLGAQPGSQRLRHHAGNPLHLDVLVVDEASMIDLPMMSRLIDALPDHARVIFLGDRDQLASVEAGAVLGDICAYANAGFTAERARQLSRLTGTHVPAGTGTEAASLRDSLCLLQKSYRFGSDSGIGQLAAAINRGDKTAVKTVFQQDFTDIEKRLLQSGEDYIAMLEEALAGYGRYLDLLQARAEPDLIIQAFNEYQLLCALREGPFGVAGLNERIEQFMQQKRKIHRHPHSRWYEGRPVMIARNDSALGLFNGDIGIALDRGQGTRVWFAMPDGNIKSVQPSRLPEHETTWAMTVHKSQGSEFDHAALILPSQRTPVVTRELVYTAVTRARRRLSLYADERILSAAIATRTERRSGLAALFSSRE
T1 sequence (P07648 whole entry): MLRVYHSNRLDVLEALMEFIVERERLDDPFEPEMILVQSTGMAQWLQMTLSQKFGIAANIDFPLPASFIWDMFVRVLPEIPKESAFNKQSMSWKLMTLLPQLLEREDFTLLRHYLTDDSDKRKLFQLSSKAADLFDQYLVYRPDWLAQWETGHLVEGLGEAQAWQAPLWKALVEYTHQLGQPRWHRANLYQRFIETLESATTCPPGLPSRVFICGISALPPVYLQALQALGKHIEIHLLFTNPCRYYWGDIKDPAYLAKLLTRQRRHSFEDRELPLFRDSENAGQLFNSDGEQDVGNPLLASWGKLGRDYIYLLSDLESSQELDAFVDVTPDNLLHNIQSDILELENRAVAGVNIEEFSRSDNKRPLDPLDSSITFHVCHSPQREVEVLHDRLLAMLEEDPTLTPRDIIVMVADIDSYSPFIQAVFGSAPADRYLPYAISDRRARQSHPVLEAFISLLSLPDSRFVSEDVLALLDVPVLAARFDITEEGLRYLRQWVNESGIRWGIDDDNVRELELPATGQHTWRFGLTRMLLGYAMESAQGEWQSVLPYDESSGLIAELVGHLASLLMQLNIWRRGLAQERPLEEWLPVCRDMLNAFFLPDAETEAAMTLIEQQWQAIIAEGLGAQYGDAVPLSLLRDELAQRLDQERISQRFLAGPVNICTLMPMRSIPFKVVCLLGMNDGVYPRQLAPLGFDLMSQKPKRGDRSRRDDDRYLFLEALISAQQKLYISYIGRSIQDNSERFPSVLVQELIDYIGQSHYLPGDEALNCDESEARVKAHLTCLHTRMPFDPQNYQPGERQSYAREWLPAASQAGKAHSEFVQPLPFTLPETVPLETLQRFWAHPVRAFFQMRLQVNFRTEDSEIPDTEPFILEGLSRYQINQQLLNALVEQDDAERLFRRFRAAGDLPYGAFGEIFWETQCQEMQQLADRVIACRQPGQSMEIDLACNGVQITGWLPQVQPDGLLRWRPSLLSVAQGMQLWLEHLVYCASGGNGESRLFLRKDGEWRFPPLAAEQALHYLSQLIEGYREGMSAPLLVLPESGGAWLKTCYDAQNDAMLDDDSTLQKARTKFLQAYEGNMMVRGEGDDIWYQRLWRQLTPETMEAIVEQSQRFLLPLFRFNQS
T1 sequence (P08394 whole entry): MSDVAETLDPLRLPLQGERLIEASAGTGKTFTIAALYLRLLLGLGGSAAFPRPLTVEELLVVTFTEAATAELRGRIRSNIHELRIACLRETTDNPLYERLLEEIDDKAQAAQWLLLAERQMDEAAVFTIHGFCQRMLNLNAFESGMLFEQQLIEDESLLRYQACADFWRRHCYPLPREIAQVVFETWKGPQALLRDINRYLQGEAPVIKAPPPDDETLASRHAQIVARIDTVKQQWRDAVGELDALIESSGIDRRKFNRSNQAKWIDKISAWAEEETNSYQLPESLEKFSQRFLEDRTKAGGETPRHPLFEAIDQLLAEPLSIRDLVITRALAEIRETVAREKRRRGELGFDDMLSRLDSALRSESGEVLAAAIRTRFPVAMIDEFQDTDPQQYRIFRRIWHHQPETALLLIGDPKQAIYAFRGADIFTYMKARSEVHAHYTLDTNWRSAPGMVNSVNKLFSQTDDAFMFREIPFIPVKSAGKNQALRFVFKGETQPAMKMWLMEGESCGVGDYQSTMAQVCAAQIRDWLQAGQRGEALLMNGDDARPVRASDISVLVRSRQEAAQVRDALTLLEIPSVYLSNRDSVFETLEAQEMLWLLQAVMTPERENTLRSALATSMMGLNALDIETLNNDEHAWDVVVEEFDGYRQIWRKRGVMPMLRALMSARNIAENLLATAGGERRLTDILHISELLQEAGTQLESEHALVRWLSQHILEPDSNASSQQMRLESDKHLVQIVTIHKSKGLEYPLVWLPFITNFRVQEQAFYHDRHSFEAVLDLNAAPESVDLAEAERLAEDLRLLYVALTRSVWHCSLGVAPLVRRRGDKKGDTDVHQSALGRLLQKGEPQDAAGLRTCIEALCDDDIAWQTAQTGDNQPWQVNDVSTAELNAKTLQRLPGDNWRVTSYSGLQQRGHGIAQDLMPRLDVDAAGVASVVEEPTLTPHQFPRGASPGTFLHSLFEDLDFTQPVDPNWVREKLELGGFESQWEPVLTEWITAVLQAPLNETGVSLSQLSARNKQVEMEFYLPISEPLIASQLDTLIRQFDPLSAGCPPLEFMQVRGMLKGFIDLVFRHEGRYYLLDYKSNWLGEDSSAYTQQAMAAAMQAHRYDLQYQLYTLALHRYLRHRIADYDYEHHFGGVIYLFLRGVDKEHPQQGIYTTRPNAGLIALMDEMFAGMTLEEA
Nature of the assay: E. coli RecBCD inhibitors, dose response, counter-screen for AddAB inhibitor project, absorbance, V66 E. coli, mutant T4 phage (AID 492957). The assay is classed as functional, cell-based, Escherichia coli str. K-12 substr. MG1655. On the technique in general: The purpose of a counterscreen is to sort out artefacts and off-target activity.

In assay [1] the target is Mitogen-activated protein kinase kinase kinase kinase 4 (Homo sapiens, UniProt O95819). The assay is classed as functional.
Mitogen-activated protein kinase kinase kinase kinase 4, sequence (O95819 whole entry): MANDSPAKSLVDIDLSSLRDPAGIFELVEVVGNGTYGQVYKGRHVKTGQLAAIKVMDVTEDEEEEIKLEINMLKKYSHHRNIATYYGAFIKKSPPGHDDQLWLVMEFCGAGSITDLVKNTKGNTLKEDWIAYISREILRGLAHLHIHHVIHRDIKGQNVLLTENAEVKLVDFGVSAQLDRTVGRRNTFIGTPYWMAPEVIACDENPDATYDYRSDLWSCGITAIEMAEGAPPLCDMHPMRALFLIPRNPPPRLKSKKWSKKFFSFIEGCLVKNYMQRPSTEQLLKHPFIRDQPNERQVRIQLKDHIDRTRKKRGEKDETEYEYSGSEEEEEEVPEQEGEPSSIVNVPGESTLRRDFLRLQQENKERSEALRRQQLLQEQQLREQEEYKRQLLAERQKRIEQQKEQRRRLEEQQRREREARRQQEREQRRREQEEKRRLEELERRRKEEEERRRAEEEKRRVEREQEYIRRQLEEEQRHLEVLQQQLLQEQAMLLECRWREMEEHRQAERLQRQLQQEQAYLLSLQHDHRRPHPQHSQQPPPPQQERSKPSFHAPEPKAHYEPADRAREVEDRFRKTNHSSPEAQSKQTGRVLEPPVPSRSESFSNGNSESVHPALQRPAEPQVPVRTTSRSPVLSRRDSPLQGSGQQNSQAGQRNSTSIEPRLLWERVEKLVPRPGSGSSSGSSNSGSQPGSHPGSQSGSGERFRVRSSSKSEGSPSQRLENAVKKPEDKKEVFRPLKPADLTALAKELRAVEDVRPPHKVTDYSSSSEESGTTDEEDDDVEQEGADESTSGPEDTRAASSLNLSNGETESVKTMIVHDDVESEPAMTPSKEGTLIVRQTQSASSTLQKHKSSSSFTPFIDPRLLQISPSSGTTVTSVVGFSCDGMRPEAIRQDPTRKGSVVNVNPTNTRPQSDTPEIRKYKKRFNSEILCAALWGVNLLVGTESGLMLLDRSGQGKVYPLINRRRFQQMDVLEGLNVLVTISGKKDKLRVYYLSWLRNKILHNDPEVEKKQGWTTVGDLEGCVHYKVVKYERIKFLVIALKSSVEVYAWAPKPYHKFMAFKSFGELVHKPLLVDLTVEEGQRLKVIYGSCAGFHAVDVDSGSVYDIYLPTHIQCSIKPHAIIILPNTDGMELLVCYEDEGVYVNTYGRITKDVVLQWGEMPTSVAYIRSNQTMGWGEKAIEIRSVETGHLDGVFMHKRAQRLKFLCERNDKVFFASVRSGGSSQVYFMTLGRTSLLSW
Assay [2] deals with Serine/threonine-protein kinase D3 (Homo sapiens, UniProt O94806). The assay is classed as functional.
Serine/threonine-protein kinase D3, sequence (O94806 whole entry): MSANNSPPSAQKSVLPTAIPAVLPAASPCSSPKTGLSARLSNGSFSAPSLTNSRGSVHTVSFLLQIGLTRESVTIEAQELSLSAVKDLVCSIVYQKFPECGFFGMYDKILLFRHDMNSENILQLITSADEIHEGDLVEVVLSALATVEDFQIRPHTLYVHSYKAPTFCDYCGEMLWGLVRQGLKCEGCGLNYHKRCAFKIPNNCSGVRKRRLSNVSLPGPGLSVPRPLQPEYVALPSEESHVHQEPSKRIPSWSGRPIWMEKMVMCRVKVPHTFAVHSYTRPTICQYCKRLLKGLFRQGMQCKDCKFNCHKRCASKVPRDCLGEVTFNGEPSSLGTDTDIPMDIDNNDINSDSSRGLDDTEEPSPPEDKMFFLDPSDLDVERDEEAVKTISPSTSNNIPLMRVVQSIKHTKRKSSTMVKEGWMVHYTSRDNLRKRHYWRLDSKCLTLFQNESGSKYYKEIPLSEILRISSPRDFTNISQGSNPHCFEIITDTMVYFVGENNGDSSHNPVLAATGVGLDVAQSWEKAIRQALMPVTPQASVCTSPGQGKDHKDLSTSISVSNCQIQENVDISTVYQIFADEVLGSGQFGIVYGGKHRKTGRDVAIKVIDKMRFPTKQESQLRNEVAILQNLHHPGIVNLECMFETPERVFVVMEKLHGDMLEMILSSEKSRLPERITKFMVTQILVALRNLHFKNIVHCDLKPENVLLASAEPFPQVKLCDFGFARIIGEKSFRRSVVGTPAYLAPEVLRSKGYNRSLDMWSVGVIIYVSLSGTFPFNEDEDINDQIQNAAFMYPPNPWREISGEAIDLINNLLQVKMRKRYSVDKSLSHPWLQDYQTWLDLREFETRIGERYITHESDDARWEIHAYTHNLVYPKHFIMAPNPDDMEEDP
Assay [3] has as its target Dual specificity protein kinase CLK4 (Homo sapiens, UniProt Q9HAZ1). The assay is classed as functional.

Dual specificity protein kinase CLK4, sequence (Q9HAZ1 whole entry): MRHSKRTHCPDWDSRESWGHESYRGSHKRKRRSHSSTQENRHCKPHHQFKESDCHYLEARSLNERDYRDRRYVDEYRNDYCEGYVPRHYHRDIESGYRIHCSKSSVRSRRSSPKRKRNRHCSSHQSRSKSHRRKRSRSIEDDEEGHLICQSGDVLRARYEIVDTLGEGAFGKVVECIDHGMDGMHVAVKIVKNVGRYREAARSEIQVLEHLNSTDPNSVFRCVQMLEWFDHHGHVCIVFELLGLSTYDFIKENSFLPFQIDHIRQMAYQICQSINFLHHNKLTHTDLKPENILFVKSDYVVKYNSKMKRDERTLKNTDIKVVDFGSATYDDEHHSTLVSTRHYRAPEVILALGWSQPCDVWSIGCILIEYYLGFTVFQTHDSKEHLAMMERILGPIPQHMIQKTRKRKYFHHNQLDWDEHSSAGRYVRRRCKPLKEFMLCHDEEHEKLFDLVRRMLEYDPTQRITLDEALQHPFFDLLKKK

As a reminder, the AC50 is the midpoint of the concentration-response curve, whichever way the signal moves. On to `O=C(NC1=C(NC2CCS(=O)(=O)C2)C(=O)c2ccccc2C1=O)c1ccccc1` (stereo not given), for which the concentration at half-maximal activity (AC50) on Paired box protein Pax-8 was 6400 nM (active).
A word on the IC50: it is the concentration that inhibits the measured activity by half. Regarding `CCCC(=O)NC(c1ccc(N(C)C)cc1)c1ccc2cccnc2c1O` (stereo not given), on Exodeoxyribonuclease V, the IC50 is > 119000 nM (inactive).
Usually Ki stands for a dissociation constant, usually derived from enzyme kinetics or from competition with a known ligand. For `O=C1NC(=O)C(c2c[nH]c3ccccc23)=C1c1nc(N2CCNCC2)nc2ccccc12`, the Ki is 200 nM (active) in assay [1], 1580 nM (active) in assay [2] and > 1580 nM (inactive) in assay [3].
